Reference: patent US12435067B2, “Truncated itraconazole analogues and methods of use thereof” (University of Connecticut, priority 2019, dated 2025)
≈ marks a conversion by molar mass, not a printed value. Like-named read-outs stand apart in the source and are kept apart here. One block for each molecule: values may come before it.

Experiments:
[1] = system: Gli1 mRNA expression in the Hh-dependent murine BCC cell line ASZ001; experiment: Hh inhibition: Gli1 mRNA expression in ASZ001 cells (qPCR); type: cell-based; conditions: for IC50: ASZ001 cells
Description: In order to continue SAR exploration of this region of the scaffold, efforts sought to synthesize and evaluate analogues that continue the scaffold truncation that was previously probed by removing the phenyl ring on the ‘right side’ of the scaffold and directly appending the 3-phenolic carboxylic acid of 2 to the piperazine amine to provide analogue 3. This analogue was evaluated for its ability to decrease Gli1 mRNA expression in the Hh-dependent murine BCC cell line ASZ001.
(§1) General protocols for cell culture, qPCR, and Hh inhibition in ASZ001 cells, C3H10T1/2 cells, and Sufu^−/− MEFs cells are as previously described (Pace et al. “Repurposing the clinically efficacious antifungal agent itraconazole as an anticancer chemotherapeutic. J. Med. Chem. 2016, 59, 3635-3649; Maschinot et al. “Synthesis and evaluation of third generation vitamin D3 analogues as inhibitors of Hedgehog signaling.” Eur. J. Med. Chem. 2019, 162, 495-506.). HC-04 cells were maintained in Dulbecco's modified Eagle's medium (Gibco Life Technologies) supplemented with 10% heat-inactivated fetal bovine serum (Gibco) and 1% pen-strep (Gibco) at 37° C. in 5% CO2. Cells were split 1:5 every 2-3 days, once they reached ˜80% confluency. Antiproliferation assay against HC-04 cells was using MTS method. The general protocol was the same as described earlier. (Banerjee et al. “Evaluation of vitamin D3 A-ring analogues as hedgehog pathway inhibitors.” Bioorg. Med. Chem. Lett. 2012, 22, pp. 1330-1334.) All data were analyzed with GraphPad Prism 5 and reported values represent the mean±SEM for at least two separate experiments carried out in triplicate for qPCR assay; or performed for at least three separate experiments carried out in quadruplicate for MTS assay.

[2] = Microsomal stability in human liver microsomes; conditions: for Microsomal Stability T1/2 / Microsomal Stability Clint / half-life / microsomal CLint: human liver microsomes; for Microsomal Stability Clint: predicted intrinsic clearance; for half-life / microsomal CLint: human
[3] = system: Gli1 mRNA in the Hh-dependent mouse embryonic fibroblast C3H10T1/2 cell line; experiment: Gli1 mRNA down-regulation in C3H10T1/2 cells (qPCR); type: cell-based; conditions: Mean ± SEM
Description: (§2) Both metabolites retain potent inhibition of Hh signaling (Table 3). […] Based on the improved activity of the truncated analogue 21, which contains approximately half of the intact ITZ scaffold, this analogue was also evaluated in Sufu^−/− mouse embryonic fibroblasts (MEFs) to determine whether Smo is still the most likely target of the metabolite.
as §1

in vitro = type: cell-based, human; conditions: human
Description: (§3) The activity for both metabolites prompted a study of their PK profile (Table 3). […] In addition, significant improvements in solubility at pH 7.4 and pH 4.0 compared to ITZ were found for analogue 21. Finally, the general toxicity of compounds 11 and 21 were evaluated by exploring their anti-proliferative activity in HC-04 cells, a human hepatocyte-derived cell line that abundantly expresses drug metabolizing enzymes (Table 5).
as §1

HC-04 cells = experiment: in vitro; type: cell-based, human
Description: as §3, §1

[4] = system: Sufu−/− mouse embryonic fibroblasts (MEFs); experiment: Hh inhibition in Sufu−/− MEFs; type: cell-based
Description: as §2
General protocols for cell culture, qPCR, and Hh inhibition in ASZ001 cells, C3H10T1/2 cells, and Sufu^−/− MEFs cells are as previously described (Pace et al. “Repurposing the clinically efficacious antifungal agent itraconazole as an anticancer chemotherapeutic. J. Med. Chem. 2016, 59, 3635-3649; Maschinot et al. “Synthesis and evaluation of third generation vitamin D3 analogues as inhibitors of Hedgehog signaling.” Eur. J. Med. Chem. 2019, 162, 495-506.). […] (Banerjee et al. “Evaluation of vitamin D3 A-ring analogues as hedgehog pathway inhibitors.” Bioorg. Med. Chem. Lett. 2012, 22, pp. 1330-1334.) All data were analyzed with GraphPad Prism 5 and reported values represent the mean±SEM for at least two separate experiments carried out in triplicate for qPCR assay; or performed for at least three separate experiments carried out in quadruplicate for MTS assay.

[5] = human, microsomes
[6] = Mus musculus, Gli1 mRNA expression, Mean ± SEM of at least two experiments in triplicate, read-out: ASZ001, IC50
[7] = C3H 10T1/2, Gli1 expression up-regulated by recombinant mouse sonic hedgehog (SHh), read-out: C3H10T1/2, IC50, SHh
[8] = Mus musculus, C3H 10T1/2, Gli1 expression up-regulated by oxysterols (OHCs), read-out: C3H10T1/2, IC50, OHCs
[9] = Gli1 mRNA expression, Mean ± SEM of at least two experiments in triplicate, read-out: ASZ001, IC50

Molecule: C[C@]1(c2ccc(Cl)cc2Cl)OC[C@@H](COc2ccc(N3CCN(C(=O)c4ccc(O)cc4)CC3)cc2)O1 [Compound 4]
IC50 [1, 6]: 580 nM

Molecule: C[C@]1(c2ccc(Cl)cc2Cl)OC[C@@H](COc2ccc(N3CCN(C(=O)c4ccccn4)CC3)cc2)O1 [Compound 5]
IC50 [1, 6]: 1420 ± 300 nM

Molecule: C[C@]1(c2ccc(Cl)cc2Cl)OC[C@@H](COc2ccc(N3CCN(C(=O)c4cccnc4)CC3)cc2)O1 [Compound 6]
IC50 [1, 6]: 1300 ± 310 nM

Molecule: C[C@]1(c2ccc(Cl)cc2Cl)OC[C@@H](COc2ccc(N3CCN(C(=O)c4ccncc4)CC3)cc2)O1 [Compound 7]
IC50 [1, 6]: 570 nM

Molecule: COc1cccc(CCC(=O)N2CCN(c3ccc(OC[C@@H]4CO[C@](C)(c5ccc(Cl)cc5Cl)O4)cc3)CC2)c1 [Compound 16]
IC50 [1, 6]: 460 nM

Molecule: C[C@]1(c2ccc(Cl)cc2Cl)OC[C@@H](COc2ccc(N3CCN(C(=O)CCCc4ccc(O)cc4)CC3)cc2)O1 [Compound 17, 4-Hydroxy-N-(4-(4-(((2S,4R)-2-(2,4-Dichlorophenyl)-2-Methyl-1,3-Dioxolan-4-yl)Methoxy)Phenyl)Piperazin-1-yl)Phenylbutyric Amide]
IC50 [1, 6]: 470 nM

Molecule: C[C@@]1(c2ccc(Cl)cc2Cl)OCC(COc2ccc(N3CCN(C(=O)N/N=C/c4cccc(O)c4)CC3)cc2)O1 (some centres unmarked) [Compound 20]
less active (Hh inhibition) ([1]; 2R,4R-trans 20 compared with cis 18, ASZ001): approximately 5 fold
IC50 [1, 6]: 580 nM

Molecule: C[C@]1(c2ccc(Cl)cc2Cl)OCC(COc2ccc(N3CCN(CCCc4cccc(O)c4)CC3)cc2)O1 (some centres unmarked) [Compound 23]
IC50 [1, 6]: 870 nM
solubility (PBS solubility; pH 4, aqueous buffer): 0.13 µM (≈ 0.0725 µg/mL)
solubility (PBS solubility; pH 7.4, aqueous buffer): 0.02 µM (≈ 0.0112 µg/mL)
half-life [2]: 14 min
microsomal CLint [2]: 50 ± 0.8 µL/min/mg

Molecule: CS(=O)(=O)c1ccc(C(=O)Nc2ccc(Cl)c(-c3ccccn3)c2)c(Cl)c1 [Vismodegib, reference compound]
IC50 [3, 7]: 22 ± 20 nM
IC50 [3, 8]: 10 ± 12 nM
GI50 (in vitro): > 100000 nM

Molecule: Itraconazole [ITZ, reference compound]
IC50 [1, 9]: 140 ± 20 nM
IC50 ([3]; Gli1 expression up-regulated by oxysterols (OHCs), read-out: C3H10T1/2, IC50, OHCs): 5900 ± 1300 nM
IC50 ([3]; Gli1 expression up-regulated by recombinant mouse sonic hedgehog (SHh), read-out: C3H10T1/2, IC50, SHh): 240 ± 200 nM
GI50 (HC-04 cells): > 50000 nM
Solubility, PBS pH 7.4: 0.80 μM
Microsomal Stability T1/2 [5]: 27.0 ± 6.2 min

Molecule: N-(4-(4-(((2S,4R)-2-(2,4-Dichlorophenyl)-2-Methyl-1,3-Dioxolan-4-yl)Methoxy)Phenyl)Piperazin-l-yl)-2-((3-hydroxyphenyl)methylene)Hydrazinecarboxamide [Compound 18]
IC50 [1, 9]: 120 nM

Molecule: N-(4-(4-(((2S,4R)-2-(2,4-Dichlorophenyl)-2-Methyl-1,3-Dioxolan-4-yl)Methoxy)Phenyl)Piperazin-l-yl)-2-((4-hydroxyphenyl)methylene)Hydrazinecarboxamide [Compound 19]
IC50 [1, 9]: 960 nM
Solubility, PBS pH 4.0 (pH 4): 0.05 μM
Solubility, PBS pH 7.4: 0.02 μM
Microsomal Stability T1/2 [5]: 11.4 ± 0.2 min

More lines, in order of falling IC50 [1, 6], values ahead:

IC50 [1, 6]: 380 ± 40 nM
Solubility, PBS pH 4.0 (PBS solubility): 0.25 μM
Solubility, PBS pH 7.4 (PBS solubility): 0.13 μM
more stable (HLM stability) ([2]; 10 compared with 11, human liver microsomes): approximately 6.5 fold
Microsomal Stability T1/2 [2]: 20.4 ± 0.4 min
Microsomal Stability Clint [2]: 33.9 ± 0.6 µL/min/mg
Molecule: C[C@]1(c2ccc(Cl)cc2Cl)OC[C@@H](COc2ccc(N3CCN(C(=O)Cc4cccc(O)c4)CC3)cc2)O1 [Compound 10]

IC50 [1, 6]: 360 ± 50 nM
Molecule: C[C@]1(c2ccc(Cl)cc2Cl)OC[C@@H](COc2ccc(N3CCN(C(=O)/C=C/c4ccc(O)cc4)CC3)cc2)O1 [Compound 14, 4-Hydroxy-N-(4-(4-(((2S,4R)-2-(2,4-Dichlorophenyl)-2-Methyl-1,3-Dioxolan-4-yl)Methoxy)Phenyl)Piperazin-1-yl)Cinnamamide]

IC50 [1, 6]: 280 nM
Molecule: C[C@]1(c2ccc(Cl)cc2Cl)OC[C@@H](COc2ccc(N3CCN(C(=O)c4ccc(N)cc4)CC3)cc2)O1 [Compound 9]

IC50 [1, 6]: 260 nM
Solubility, PBS pH 4.0 (PBS solubility): 0.31 μM
Solubility, PBS pH 7.4 (PBS solubility): 0.17 μM
Microsomal Stability T1/2 [2]: 15.9 ± 0.2 min
Microsomal Stability Clint [2]: 43 ± 0.6 µL/min/mg
Molecule: C[C@]1(c2ccc(Cl)cc2Cl)OC[C@@H](COc2ccc(N3CCN(C(=O)c4cccc(O)c4)CC3)cc2)O1 [Compound 3]

IC50 [1, 6]: 260 ± 30 nM
Molecule: C[C@]1(c2ccc(Cl)cc2Cl)OC[C@@H](COc2ccc(N3CCN(C(=O)CCc4ccc(O)cc4)CC3)cc2)O1 [Compound 13]

IC50 [1, 6]: 230 nM
Molecule: C[C@]1(c2ccc(Cl)cc2Cl)OC[C@@H](COc2ccc(N3CCN(C(=O)CCc4ccccc4)CC3)cc2)O1 [Compound 15]

IC50 [1, 6]: 220 ± 30 nM
Molecule: C[C@]1(c2ccc(Cl)cc2Cl)OC[C@@H](COc2ccc(N3CCN(C(=O)/C=C/c4cccc(O)c4)CC3)cc2)O1 [Compound 12]
loss in Hh inhibitory activity ([1]; trans-alkene 12 compared with 11, ASZ001): approximately 3 fold

IC50 [1, 6]: 160 nM
Molecule: C[C@]1(c2ccc(Cl)cc2Cl)OC[C@@H](COc2ccc(N3CCN(C(=O)c4ccc([N+](=O)[O-])cc4)CC3)cc2)O1 [Compound 8]

IC50 [1, 6]: 89 nM
solubility (PBS solubility; pH 7.4, aqueous buffer): 0.84 µM (≈ 0.494 µg/mL)
half-life [2]: 6.6 min
microsomal CLint [2]: 104.7 ± 0.1 µL/min/mg
Molecule: C[C@]1(c2ccc(Cl)cc2Cl)OCC(COc2ccc(N3CCN(C(=O)CCc4ccc(O)c(O)c4)CC3)cc2)O1 (some centres unmarked) [Compound 22]

IC50 ([1]; Mus musculus, read-out: IC50 value (anti-Hh activity)): 81 nM
IC50 [1, 6]: 81 nM
GI50 (in vitro): 13200 ± 500 nM
GI50 (HC-04 cells; human): 13200 nM
Solubility, PBS pH 4.0 (PBS solubility): 0.13 μM
Solubility, PBS pH 7.4 (PBS solubility): 0.03 μM
Microsomal Stability T1/2 [2]: 3.2 min
Microsomal Stability Clint [2]: 218 ± 9.7 µL/min/mg
Molecule: C[C@]1(c2ccc(Cl)cc2Cl)OC[C@@H](COc2ccc(N3CCN(C(=O)CCc4cccc(O)c4)CC3)cc2)O1 [Compound 11]
IC50 [3, 7]: 170 ± 90 nM
IC50 [3, 8]: 650 ± 70 nM

IC50 [1, 6]: 22 nM
GI50 (HC-04 cells; human): 27300 nM
Solubility, PBS pH 4.0 (PBS solubility): 169.3 μM
Solubility, PBS pH 7.4 (PBS solubility): 11.7 μM
Microsomal Stability T1/2 [2]: 50.7 min
Microsomal Stability Clint [2]: 13.7 ± 0.4 µL/min/mg
Molecule: C[C@]1(c2ccc(Cl)cc2Cl)OC[C@@H](COc2ccc(N3CCNCC3)cc2)O1 [Compound 21, 1-(4-(((2S,4R)-2-(2,4-Dichlorophenyl)-2-Methyl-1,3-Dioxolan-4-yl)Methoxy)Phenyl)Piperazine]
IC50 [3, 7]: 1530 ± 200 nM
IC50 [3, 8]: 2700 ± 200 nM
anti-Hh activity in Sufu−/− MEFs [4]: completely abolished
